From patent publication US20150023954A1, “POTENTIATING ANTIBODY-INDUCED COMPLEMENT-MEDIATED CYTOTOXICITY VIA PI3K INHIBITION” (MEMORIAL SLOAN-KETTERING CANCER CENTER, priority 2012, published 2015)
“Also recorded” adds a separate entry of the source.

Columns and labels:
tumor cells = assay: Cell growth experiments with MEK inhibitors and low dose PGNX; format: cell-based; conditions: PGNX less than 0.0001 μg/m; AZD6244 0.1 μM-5.0 μM; data not shown
Text: (§1) WST-1 assay. […] The Student t test was used for statistical analysis.

p-Akt [1] = assay: Western blot of p-Akt in CHLA136Luc cell extracts; format: cell-based, human; conditions: BEZ235; cells treated with PGNX 0.001 μg/m for 4 hours
Procedure: (§2) Western blot. 1×10^6 Cells were plated into 6 well plates and incubated overnight. Cells were then treated with BEZ235, mAbs and human sera complement at the dose indicated for 4 hours. At the end of incubation, cells were collected and lysed with lysis buffer from Cell Signal (Danvers, Mass.), which contains protease inhibitor cocktail and phosphatase inhibitor cocktail (Calbiochem, Philadelphia, Pa.), each at 1:100 dilution (Cocktails:lysis buffer). The cell lysates were then quantitated using Bradford assay (Bio-Rad, Hercules, Calif.) according to that company's manual: 30 μg of cell lysate protein from each sample were running on 7.5% of Tris-HCL gel (Bio-Rad) and transferred to a PVDF membrane. Membrane was then blocked with Pierce blocking buffer overnight at 4° C., probed with indicated mAbs at 1:1000 dilution overnight at 4° C. and HRP-goat anti-rabbit-IgG antibody at 1:1000 for 1 hour. The membrane was washed with PBS-T (0.1% Tween-20+PBS) 5 minutes on a shaker 5 times after each incubating and then developed using Amersham™ ECL™ Prime Western Blotting Detection Reagent (GE Healthcare, Piscataway, N.J.). Imaging was acquired by scanning the membrane on the FujiFilm LAS-3000 Imager.

DaudiLuc cells = assay: WST-1 cell growth assay, DaudiLuc; format: cell-based, human
Text: as §1

Colo205Luc cells [2] = system: Colo205Luc cells
Procedure: (§4) WST-1 assay. WST-1 cell proliferation assay kit was used for detection of the extent of cellular proliferation according to the company's manual. Briefly, 20,000 cells in 100 μl of culture media as defined above were plated in a 96 well flat bottom plate and incubated at 37° C. in 5% CO2 overnight. Antibody doses between 0.02 ρg to 5 μg in 1 μl of defined culture media were added to each well and incubated for 1 hour at 37° C., 5% CO2; 4-10 μl of human serum complement (Quidel Corp. San Diego, Calif.) was then added to each well and incubated overnight. For assays testing the impact of PI3K inhibitor, BEZ235 (Chemdea, Ridgewood, N.J.) at 0.005, 0.5 or 5.0 μg/ml were added accordingly at same time when mAb was added. WST-1 agent (Roche Applied Science, Indianapolis Ind.) was added at 1:10 ratio at the end of incubation, and OD (Optical density) was acquired by reading the plates at 415 nm 4 hours later. The Student t test was used for statistical analysis.

p-Akt [3] = assay: Western blot and immunofluorescent staining of p-Akt in Colo205 cells; format: cell-based
Procedure: as §2

p-PRAS40 = assay: Western blot of p-PRAS40 in CHLA136Luc cell extracts; format: cell-based, human; conditions: BEZ235; cells treated with PGNX 0.001 μg/m for 4 hours
Procedure: as §2

CHLA136Luc cells [4] = assay: IV CHLA136Luc tumor challenge in SCID mice: survival and tumor growth by luciferase imaging; format: in vivo, CB17 SCID mice
Procedure: Animals. CB17 SCID mice (Taconic) 5-8 weeks old were housed 5 to a cage. The Memorial Sloan Kettering Cancer Center Institutional Animal Care and Use Committee (IACUC) approved all protocols and procedures.
Tumor Challenge. Mice were placed under a heat lamp for 3 minutes and immobilized in a mouse restrainer; 0.5 million CHLA136Luc cells in 100 μl were injected into the tail vein using a BD insulin syringe with 28 gauge needle.
(§3) mAb administration. Mice were treated with murine mAbs 3F8, PGNX, R24, against GD2, GM2, GD3 and Rituxan against CD20. Control mice, typically 2 cages of 5 mice, were treated identically, receiving the same volume of PBS at the same intervals.
Imaging. Mice were anaesthetized using isoflurane and injected with 300 μg of D-Luciferin Firefly (Caliper LifeScience, Hopkinton, Mass.). They were imaged 10 minutes later using the IVIS200 in vivo imaging system (Caliper Life Science) over periods of time ranging up to 3 minutes using the software program “Living Image 3.0” (Caliper Life Science). Values are reported as photons/second.
Statistical analysis. Overall survival was defined as the time from IV tumor cell challenge to date of death or day 160. Survival distributions were generated using Kaplan-Meier methodology (Kaplan, “Nonparametric estimation from incomplete observations”, J. Am. Stat. Assoc., 1958, 53:457-81) and comparisons between treatment group and control (PBS) were made via the […] (using Graphpad Prism 5).

Colo205Luc cells [5] = assay: Cell growth assay, Colo205; conditions: for 5B1 cytotoxicity: all inhibitor doses tested, overnight with mAb 5B1 and HuC 5%; for tumor cell (Colo205) growth: high concentration of antibody, better than either inhibitor alone (FIG. 5C, 5D); for PGNX induced tumor cell cytotoxicity: highest PGNX and inhibitor dose tested; for tumor cell growth induced by low dose PGNX and complement: low dose PGNX (e.g., 0.0001 μg/ml), HuC′ 50 μl/ml
Procedure: as §4

CHLA136Luc cells [6] = assay: WST-1 cell growth assay, CHLA136Luc; format: cell-based, human; conditions: for higher mAb dose (plus complement) cytotoxicity / low mAb dose (plus complement) growth acceleration: all inhibitor dose levels, with PGNX, 18 hours
Text: as §1

CD20 = assay: In vivo experiments targeting CD20 (Rituxan): tumor growth; design: species or system SCID mice; conditions: data not shown
Procedure: as §3

[7] = system: CHLA136Luc, Lan-1-Luc, H524, Hs445, Daudi cells; assay: In vitro cell growth (WST-1) with mAbs and human complement on selected cell lines (FIG. 3); format: cell-based
Text: as §1

Hs445 = assay: WST-1 cell growth assay, Hs445; format: cell-based, human; conditions: low dose, six experiments
Text: as §1

[8] = BEZ235 alone, 25 or 12.5 mg/kg by gavage daily for 2 weeks

Which “cytotoxicity of PGNX at sublytic low dosages” value (tumor cells) does the source give for `Cn1cnc2c(F)c(Nc3ccc(Br)cc3Cl)c(C(=O)NOCCO)cc21` [AZD6244] here?
Its value is “enhanced”.

Which p-Akt expression (p-Akt [1]) does the source give for `Cn1c(=O)n(-c2ccc(C(C)(C)C#N)cc2)c2c3cc(-c4cnc5ccccc5c4)ccc3ncc21` [BEZ235] here?
The p-Akt expression was “inhibited”.

And the “cell growth in vitro” value (DaudiLuc cells; BEZ235)?
The value was “decreased”.

What about the mAb cytotoxicity (DaudiLuc cells; all BEZ235 doses tested, combined with Rituxan at various doses plus complement, vs each treatment alone) of the same molecule?
Its mAb cytotoxicity is “significantly enhanced; also recorded: increased”.

What about the “accelerated cell growth induced by low dose mAb” value (DaudiLuc cells; combined with low-dose Rituxan (0.0001 μg/ml) plus complement) of the same molecule?
Its value is “significantly inhibited; also recorded: prevented”.

And the “cytotoxicity of Colo205luc cells” value (Colo205Luc cells [2])?
Its value is “significantly enhanced”.

What about the p-Akt expression (p-Akt [3]; BEZ235 1 μM alone) of the same molecule?
Its p-Akt expression is “inhibited; also recorded: decreased p-AKT”.

And the “treatment time giving complete inhibition of p-Akt expression” value (p-Akt [3]; BEZ235 at 1 μM)?
The value was no less than 2 h.

And the “BEZ235 dose giving complete inhibition of p-AKT expression” value (p-Akt [3]; cells treated for 4 hrs)?
The value was no less than 0.5 µM.

And the p-PRAS40 expression (p-PRAS40)?
Its p-PRAS40 expression is “inhibited”.

And the CHLA136Luc growth (CHLA136Luc cells [4]; [8])?
Its CHLA136Luc growth is “significantly reduced”.

What about the survival (CHLA136Luc cells [4]; [8]) of the same molecule?
Its survival is “prolonged survival”.

And the “high mAb dose induced growth inhibition” value (CHLA136Luc cells [4]; BEZ235 by gavage with high dose mAb)?
The value was “increased”.

What about the “low dose mAb (PGNX) induced early tumor growth acceleration” value (CHLA136Luc cells [4]; BEZ235 by gavage with low-dose PGNX) of the same molecule?
Its value is “eliminated; also recorded: preventing; also recorded: prevented”.

And the “survival of challenged SCID mice” value (CHLA136Luc cells [4]; BEZ235 with mAbs, compared with high-dose PGNX and 3F8 alone)?
Its value is “significantly increasing survival”.

What about the “effect on proliferation compared to Wortmannin” value (Colo205Luc cells [5]) of the same molecule?
Its value is “greater effect”.

And the “accelerated cell growth induced by low dose 5B1” value (Colo205Luc cells [5]; 5B1 0.001-0.01 μg/ml (BEZ235), 0.001 μg/ml (Wortmannin))?
The value was “inhibited”.

And the “effect on proliferation compared to Wortmannin” value (CHLA136Luc cells [6])?
Its value is “greater effect”.

What about the “cell growth in vitro” value (CHLA136Luc cells [6]; BEZ235) of the same molecule?
The value was “decreased”.

And the “mAb cytotoxicity and low-dose growth acceleration” value (CHLA136Luc cells [6]; BEZ235 with mAbs R24 and PGNX (Table 2))?
The value was “Comparable results”.

What about the mAb cytotoxicity (CHLA136Luc cells [6]; all BEZ235 doses tested, combined with 3F8 at various doses plus complement, vs each treatment alone) of the same molecule?
Its mAb cytotoxicity is “significantly enhanced; also recorded: increased”.

What about the “accelerated cell growth induced by low dose mAb” value (CHLA136Luc cells [6]; combined with low-dose 3F8 (0.001 μg/ml) plus complement) of the same molecule?
Its value is “significantly inhibited; also recorded: prevented”.

What does the source list for `Nc1cc(C(F)(F)F)c(-c2cc(N3CCOCC3)nc(N3CCOCC3)n2)cn1` [BKM120]?
5B1 cytotoxicity (Colo205Luc cells [5]): enhanced; tumor cell (Colo205) growth (Colo205Luc cells [5]): inhibited; PGNX induced tumor cell cytotoxicity (Colo205Luc cells [5]): enhanced; tumor cell growth induced by low dose PGNX and complement (Colo205Luc cells [5]): dramatically inhibited; higher mAb dose (plus complement) cytotoxicity (CHLA136Luc cells [6]): increased; low mAb dose (plus complement) growth acceleration (CHLA136Luc cells [6]): prevented

How did the “cytotoxicity of PGNX at sublytic low dosages” value (tumor cells) turn out when `CC(=O)Nc1cccc(-n2c(=O)n(C3CC3)c(=O)c3c(Nc4ccc(I)cc4F)n(C)c(=O)c(C)c32)c1` [GSK202011] was run?
The value was “enhanced”.

How did the 5B1 cytotoxicity (Colo205Luc cells [5]) turn out when `NC1(c2ccc(-c3nc4ccn5c(=O)[nH]nc5c4cc3-c3ccccc3)cc2)CCC1` [MK2206] was run?
The 5B1 cytotoxicity was “enhanced”.

And the “tumor cell (Colo205) growth” value (Colo205Luc cells [5])?
Its value is “inhibited”.

What about the “PGNX induced tumor cell cytotoxicity” value (Colo205Luc cells [5]) of the same molecule?
The value was “enhanced”.

What about the “tumor cell growth induced by low dose PGNX and complement” value (Colo205Luc cells [5]) of the same molecule?
The value was “dramatically inhibited”.

And the “higher mAb dose (plus complement) cytotoxicity” value (CHLA136Luc cells [6])?
Its value is “increased”.

And the “low mAb dose (plus complement) growth acceleration” value (CHLA136Luc cells [6])?
Its value is “prevented”.

rituximab [Rituxan] was tested. Which cell growth (DaudiLuc cells; low dose, single experiment) did it give?
The cell growth was “significantly accelerated growth”.

And the tumor growth (CD20; doses as low as 0.001 mcg)?
Its tumor growth is “slight delay of tumor growth”.

What about the accelerated tumor growth (CD20; doses down to 0.001 mcg) of the same molecule?
The accelerated tumor growth was “not seen”.

And the “tumor growth in vitro” value ([7]; high mAb doses, with complement)?
Its value is “inhibited tumor growth”.

What about the complement-independent tumor inhibition ([7]; highest mAb doses, absence of complement) of the same molecule?
Its complement-independent tumor inhibition is “detected”.

And the “tumor cell growth in vitro” value ([7]; low mAb doses, exclusively in the presence of complement)?
The value was “accelerated tumor cell growth”.

What about the “experiments with significantly accelerated growth” value (Hs445) of the same molecule?
Its value is 4.
